How the values were obtained:
Format in all cases: in vivo, mouse
[1] = test system: Winnie mice; test: Intestinal permeability: FABP1 ELISA in blood sera; settings: day 14; mean±SEM, n=5
Protocol: The small molecular APE1/Ref-1 antagonist; APX3330, was administered via IP injections in Winnie mice at a dose of 25 mg/kg (30 G needle, max volume 200 μl) dissolved in Cremphore (2%) (Sigma-Aldrich): Ethanol (2%) in sterile water (96%). Mice received alternating IP injections twice a day with 12-hour intervals, over the course of two weeks during predominate intestinal inflammation. Winnie-sham treated mice received vehicle injections excluding APX3330 drugs. All mice were monitored, weighed and faecal pellets were collected over the course of treatment. On day 14, mice were subjected to an overdose of lethobarb (1:16 dilution, 30 G, 100 μl/20 g) IP injections for blood collections prior to harvesting colon tissues. Puncture allowed for a minimal collection of 600 μl of blood via a 26 G needle. Blood was kept on ice for 2 hours, centrifuged at 12×G at 4° C. for 15 minutes were plasma was collected and stored at −20° C. for subsequent ELISA experiments. Quantikine ELISA (mouse/rat FABP1/L-FABP) (Abcam) measured sera levels for fatty acid binding protein (FABP)-1. All samples were repeated in duplicates for statistical value. […] Microplate reader capable of measuring absorbance at 450 nm, with the correction wavelength set at 540 nm was used to detect FABP-1 protein (ng/mL) in blood sera.

[2] = test system: Winnie mice; test: Ex vivo whole organ bath colonic motility of colons from treated mice; settings: excised whole colons of treated Winnie mice; mean±SEM, n=5
Protocol: The small molecular APE1/Ref-1 antagonist; APX3330, was administered via IP injections in Winnie mice at a dose of 25 mg/kg (30 G needle, max volume 200 μl) dissolved in Cremphore (2%) (Sigma-Aldrich): Ethanol (2%) in sterile water (96%). Mice received alternating IP injections twice a day with 12-hour intervals, over the course of two weeks during predominate intestinal inflammation. Winnie-sham treated mice received vehicle injections excluding APX3330 drugs. All mice were monitored, weighed and faecal pellets were collected over the course of treatment. Colonic motility experiments were completed ex vivo. Whole colons were removed from control C57BL/6, Winnie-sham treated and Winnie-APX3330 treated mice. Colons were positioned horizontally cannulated at the oral and anal end in an organ bath superfused with carbogenated (composition in mM: NaCl 118, KCl 4.6, CaCl2 3.5, MgSO4 1.2, NAH2PO4 1, NaHCO3 25 and d-Glucose; carbongenated with 95% O2 and 5% CO2) ×1 Krebs solution whilst maintained at a temperature of 37° C. The oral cannula was connected to a reservoir with 1× Krebs solution that was adjusted to maintain intraluminal pressure (0 to +2 cm H2O). The anal end was coupled to an out-flow tube with a maximum 2 cm H2O backpressure. A recording was made by a video camera being positioned above the organ bath, this recorded the colonic contractile activity. Tissue were left to equilibrate for 30 minutes prior to 2× 20-minute recordings at increasing intraluminal pressure. Videos were transposed into spatiotemporal maps with Scribble v2.0 software and were analysed by using MATLAB, v2017a software to assess parameters of colonic motility.

[3] = test system: Winnie mice; test: Gastrointestinal transit of barium sulfate by X-ray imaging; settings: 25 mg/kg IP twice a day
Protocol: The small molecular APE1/Ref-1 antagonist; APX3330, was administered via IP injections in Winnie mice at a dose of 25 mg/kg (30 G needle, max volume 200 μl) dissolved in Cremphore (2%) (Sigma-Aldrich): Ethanol (2%) in sterile water (96%). Mice received alternating IP injections twice a day with 12-hour intervals, over the course of two weeks during predominate intestinal inflammation. Winnie-sham treated mice received vehicle injections excluding APX3330 drugs. All mice were monitored, weighed and faecal pellets were collected over the course of treatment. GI transit was acquired via a non-invasive radiological method. Briefly, control C57BL/6, Winnie-sham treated and Winnie-APX3330 treated mice received an administration of barium sulfate (2.5 mg/mL; max volume of 200 μl; X-OPAQUE-HD) via oral gavage. Sequential x-rays were attained by HiRay Plus Porta610HF x-ray apparatus (JOC Corp, Kanagawa, Japan; 50 kV, 0.3 mAs, exposure time 60 ms) immediately post Barium sulfate administration (0 min), every 5 minutes for the first hour, 10 minutes for the second hour and then every 20 minutes through to 250 minutes. Fujifilm FCR Capsule XL11 and analysed on eFilm 4.2.0 software developed images. Parameters of GI transit were measured by time (mins) to determine contrast passing through whole GI tract (whole transit time), stomach to caecum (oro-cecal transit time; OCTT), leaving caecum to anus (colonic transit time; CTT) and caecum retention time.

## CCCCCCCCCC(=CC1=C(C)C(=O)C(OC)=C(OC)C1=O)C(=O)O [APX3330]
[1]
  FABP1 in blood sera: 0.6 ± 0.2 ng/mL
[2]
  proportional length of colonic migrating motor complexes (CMMCs): 73±1.0%
  proportional short contraction length (<50% of colon length): 33.9±3.8%
  total length of colonic contractions relative to total colon length: 62.3±2.4%
[3]; Winnie mice, mean±SEM
  retention time in the cecum: 86.4 ± 17.8 min
  total transit time: 173.3 ± 24.6 min
[3]; between experimental groups, Winnie mice
  oro-caecal transit time (OCTT): No changes
[3]; compared to Winnie-sham treated mice
  colonic transit time (CTT): improved

From patent publication US20220062205A1, “TREATMENT OF GASTROINTESTINAL DISORDERS AND SYMPTOMS THEREOF” (Indiana University Research and Technology Corporation, priority 2018, published 2022)
